ChEMBL document CHEMBL4706558, “Factor XII/XIIa inhibitors: Their discovery, development, and potential indications” (Eur J Med Chem, 2020)

Key:
[1] = target: T1, Trypsin (Homo sapiens, UniProt P07477+P07478+P35030); assay: Competitive inhibition of trypsin (unknown origin) using BFSR as substrate; assay type: protein assay
[2] = target: T2, Coagulation factor XII (Homo sapiens, UniProt P00748); assay: Non-competitive inhibition of factor 12a (unknown origin) using BQGR as substrate
T2 sequence (P00748 whole entry): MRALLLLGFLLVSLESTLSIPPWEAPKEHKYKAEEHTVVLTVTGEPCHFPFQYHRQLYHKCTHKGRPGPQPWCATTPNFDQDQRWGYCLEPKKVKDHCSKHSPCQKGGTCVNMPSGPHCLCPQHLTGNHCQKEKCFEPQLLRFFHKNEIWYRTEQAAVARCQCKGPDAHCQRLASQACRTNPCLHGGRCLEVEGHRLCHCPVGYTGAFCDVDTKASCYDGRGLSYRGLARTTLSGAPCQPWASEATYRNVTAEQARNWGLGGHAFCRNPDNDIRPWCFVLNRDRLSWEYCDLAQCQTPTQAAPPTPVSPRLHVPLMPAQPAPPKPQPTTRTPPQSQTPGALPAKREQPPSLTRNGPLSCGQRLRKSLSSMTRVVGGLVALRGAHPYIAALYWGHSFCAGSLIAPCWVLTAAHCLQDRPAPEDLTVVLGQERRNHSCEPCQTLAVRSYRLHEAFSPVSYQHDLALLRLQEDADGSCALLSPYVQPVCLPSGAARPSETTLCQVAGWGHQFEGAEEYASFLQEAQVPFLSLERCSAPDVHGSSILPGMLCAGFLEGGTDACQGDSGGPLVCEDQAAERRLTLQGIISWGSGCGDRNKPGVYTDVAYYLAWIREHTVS

[3] = target: T1, Trypsin; assay: Inhibition of trypsin (unknown origin); assay type: protein assay
[4] = target: T2, Coagulation factor XII; assay: Inhibition of factor 12a (unknown origin)
[5] = target: T2, Coagulation factor XII; assay: Inhibition of human factor 12a
[6] = target: T2, Coagulation factor XII; assay: Inhibition of human factor 12a using chromogenic substrate by Lineweaver-Burk analysis
[7] = Inhibition of bovine trypsin using chromogenic substrate by Lineweaver-Burk analysis; design: species or system Bos taurus
[8] = target: T2, Coagulation factor XII; assay: Inhibition of human factor 12a using H-D-Pro-Phe-Arg-pNa as substrate by spectrophotometric method
[9] = Inhibition of bovine trypsin using BAEE as substrate by Lineweaver-Burk analysis; design: species or system Bos taurus

Molecule `N=C(N)c1ccc2cc(OC(=O)c3ccc(NC4=NCCN4)cc3)ccc2c1` [SEPIMOSTAT] has a Ki [1] of 0.097 µM and a Ki [2] of 0.021 µM.
In the case of `CCCCCCOC(=O)CCCCCNC(=N)N`, the Ki [3] is reported as 20 µM.
For `Cc1ccc2oc(=O)c(C(=O)Nc3ccc(N)cc3)cc2c1`, the IC50 [4] was 14 µM.
`N=C(N)Nc1ccc(NC(=O)c2cc3cc(Cl)cc(Br)c3oc2=O)cc1` showed an IC50 [5] of 102 µM.
For `N=C(N)Nc1ccc(C(=O)Oc2ccc3cc(C(=N)N)ccc3c2)cc1` [NAFAMOSTAT], the Ki [6] was 0.105 µM and the Ki [7] was 0.016 µM.
With `CCOC(=O)c1ccc(OC(=O)CCCCCNC(=N)N)cc1` [GABEXATE] the Ki [6] was 2.92 µM and the Ki [7] was 0.072 µM.
With `N=C(N)NCCC[C@H](NC(=O)[C@@H]1CCCN1C(=O)[C@H](N)Cc1ccccc1)C(=O)CCl` the Ki [8] was 0.23 µM.
For `N=C(N)Nc1ccc(OC(=O)c2cc3cc(CCl)ccc3oc2=O)cc1`, the IC50 [5] was 6 µM.
`Cc1ccc2oc(=O)c(C(=O)Nc3ccc(NC(=N)N)cc3)cc2c1` gave an IC50 [5] of 150 µM.
Work on `CCCCCCOC(=O)CCCCCN` yielded a Ki [9] of 58.7 µM.
With `N=C(N)NCCCCCC(=O)Oc1ccccc1` the Ki [3] was 0.8 µM.
